ChEMBL document CHEMBL1201862, “PubChem BioAssay data set” (2004)
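Where inhibition never reached the appropriate level, the endpoint shown equals the highest concentration tested. Otherwise, values were interpolated linearly from a five-concentration, 48-hour dose response in 96-well plates. GI50: concentration for 50% inhibition of growth.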 Active and inactive are the calls of the source. No stated cut-off is given here; in the data, active = GI50 up to about 1.1 µM and inactive = higher.

What was measured:
Experiment in all cases: NCI tumour cell line growth inhibition, 48 h
[1] = system: A549
[2] = system: HCT-116
[3] = system: HCT-15
[4] = system: HL-60
[5] = system: Hs-578T
[6] = system: IGROV-1
[7] = system: M14
[8] = system: MDA-MB-231
[9] = system: MDA-MB-435
[10] = system: MOLT-4
[11] = system: NCI-H460
[12] = system: NCI/ADR-RES
[13] = system: OVCAR-3
[14] = system: OVCAR-5
[15] = system: SK-MEL-2
[16] = system: SK-MEL-5
[17] = system: SR
[18] = system: UO-31

| SMILES | GI50 [1] | GI50 [2] | GI50 [3] [µM] | GI50 [4] | GI50 [5] | GI50 [6] | GI50 [7] | GI50 [8] | GI50 [9] | GI50 [10] | GI50 [11] | GI50 [12] | GI50 [13] | GI50 [14] | GI50 [15] | GI50 [16] | GI50 [17] | GI50 [18] |
| --- | --- | --- | --- | --- | --- | --- | --- | --- | --- | --- | --- | --- | --- | --- | --- | --- | --- | --- |
| CCOC(=O)Cn1c(C(F)(F)F)nc2nc(Cl)c(Cl)nc21 | 47.8 µM (inactive) | 38.9 µM (inactive) | 37.2 | 19.7 µM (inactive) | 25 µM (inactive) | 22.8 µM (inactive) | 41.3 µM (inactive) | 58.9 µM (inactive) | 32.5 µM (inactive) | 26.6 µM (inactive) | 27.9 µM (inactive) | 50.2 µM (inactive) | 16.3 µM (inactive) | > 100 µM (inactive) | 24.7 µM (inactive) | 27.3 µM (inactive) | 24.2 µM (inactive) | 3.44 µM (inactive) |
| Oc1ccc(-c2ccccc2)nn1 | > 100 µM (inactive) | > 100 µM (inactive) | > 100 | > 100 µM (inactive) | > 100 µM (inactive) | > 100 µM (inactive) | > 100 µM (inactive) | > 100 µM (inactive) | > 100 µM (inactive) | > 100 µM (inactive) | > 100 µM (inactive) | > 100 µM (inactive) | > 100 µM (inactive) | > 100 µM (inactive) | > 100 µM (inactive) | > 100 µM (inactive) | > 100 µM (inactive) | > 100 µM (inactive) |
| CC(C)[Si](OCC/C=C/C1CCC(=O)C1C(O)C1CCCCC1)(C(C)C)C(C)C (configuration not stated) | 13.8 µM (inactive) | 14.7 µM (inactive) | 16.3 |  | 18.1 µM (inactive) | 15.1 µM (inactive) | 17.2 µM (inactive) | 18.8 µM (inactive) | 17.9 µM (inactive) | 12.5 µM (inactive) | 17 µM (inactive) | 13.9 µM (inactive) | 16.5 µM (inactive) | 18.2 µM (inactive) | 12.9 µM (inactive) | 14.3 µM (inactive) | 4.29 µM (inactive) | 16.6 µM (inactive) |
| O=C(/C=C/c1ccc([N+](=O)[O-])cc1)N1CCN(CCOC(c2ccc(F)cc2)c2ccc(F)cc2)CC1 | 12 µM (inactive) | 9.64 µM (inactive) | 19.1 | 9.68 µM (inactive) | > 100 µM (inactive) | 56.9 µM (inactive) | 6.35 µM (inactive) | > 100 µM (inactive) | 9.84 µM (inactive) | 3.6 µM (inactive) | 11.3 µM (inactive) | 4.72 µM (inactive) | > 100 µM (inactive) | > 100 µM (inactive) | > 100 µM (inactive) | 13.9 µM (inactive) | 7.21 µM (inactive) | 14.3 µM (inactive) |
| COc1cc(-c2ccccc2)cn2c1nc1ccccc12 | 20 µM (inactive) | 20.9 µM (inactive) | 15.3 | 15.6 µM (inactive) | 27.6 µM (inactive) | 25.2 µM (inactive) | 20.3 µM (inactive) | 21.8 µM (inactive) | 18.9 µM (inactive) | 15.7 µM (inactive) | 21.2 µM (inactive) | 22.8 µM (inactive) | 16.4 µM (inactive) | 15 µM (inactive) | 22.1 µM (inactive) | 18.5 µM (inactive) | 29.2 µM (inactive) | 14.8 µM (inactive) |
| CN(C)c1c(Cl)c(=O)oc2c1ccc1nc(-c3ccccc3)sc12 | > 100 µM (inactive) | > 100 µM (inactive) | > 100 | > 100 µM (inactive) | > 100 µM (inactive) | > 100 µM (inactive) | > 100 µM (inactive) | > 100 µM (inactive) | > 100 µM (inactive) | > 100 µM (inactive) | > 100 µM (inactive) | > 100 µM (inactive) | > 100 µM (inactive) | > 100 µM (inactive) |  | > 100 µM (inactive) | > 100 µM (inactive) | > 100 µM (inactive) |
| Cn1c(=O)oc2cc(C(=S)N3CCC(Cc4ccccc4)CC3)ccc21 |  | > 100 µM (inactive) | > 100 | > 100 µM (inactive) | > 100 µM (inactive) | > 100 µM (inactive) | > 100 µM (inactive) | > 100 µM (inactive) | 91.8 µM (inactive) | 48.1 µM (inactive) | > 100 µM (inactive) | > 100 µM (inactive) | > 100 µM (inactive) | > 100 µM (inactive) | > 100 µM (inactive) | 51.4 µM (inactive) | 72.3 µM (inactive) |  |
| COc1ccc(/C=C(/C#N)C(N)=O)c(OC)c1 | > 100 µM (inactive) | 64 µM (inactive) | 60.8 | 34 µM (inactive) | > 100 µM (inactive) | > 100 µM (inactive) | 41.3 µM (inactive) | > 100 µM (inactive) | 23.5 µM (inactive) | > 100 µM (inactive) | > 100 µM (inactive) | > 100 µM (inactive) | > 100 µM (inactive) | > 100 µM (inactive) | 50.4 µM (inactive) | 50.9 µM (inactive) | 37.3 µM (inactive) | 2.15 µM (inactive) |
| Cc1cccc(NC(=S)Nc2ccc(Cl)cc2)n1 |  | > 100 µM (inactive) | > 100 | > 100 µM (inactive) | > 100 µM (inactive) | > 100 µM (inactive) | > 100 µM (inactive) | > 100 µM (inactive) | > 100 µM (inactive) | > 100 µM (inactive) | > 100 µM (inactive) | > 100 µM (inactive) |  |  | > 100 µM (inactive) | > 100 µM (inactive) | > 100 µM (inactive) | > 100 µM (inactive) |
| COc1cc(C2SCC(=O)N2c2cccc(Cl)c2)cc(OC)c1OC (configuration not stated) | > 100 µM (inactive) | 58.9 µM (inactive) | 72.3 | 35.3 µM (inactive) | > 100 µM (inactive) | 65.9 µM (inactive) | 84.9 µM (inactive) | > 100 µM (inactive) | 29.5 µM (inactive) | 37.2 µM (inactive) | > 100 µM (inactive) | 71.9 µM (inactive) |  | > 100 µM (inactive) | > 100 µM (inactive) | > 100 µM (inactive) | 28.4 µM (inactive) | 58.2 µM (inactive) |
| COc1ccc2c3c1O[C@H]1C(=O)C=CC4(n5[nH]c(=O)n(-c6ccccc6)c5=O)C(C2)N(C)CCC314 (some centres not stated) | > 100 µM (inactive) | > 100 µM (inactive) | > 100 | > 100 µM (inactive) | > 100 µM (inactive) | > 100 µM (inactive) | > 100 µM (inactive) | > 100 µM (inactive) | > 100 µM (inactive) | > 100 µM (inactive) |  | > 100 µM (inactive) | > 100 µM (inactive) | > 100 µM (inactive) | > 100 µM (inactive) | > 100 µM (inactive) | > 100 µM (inactive) | > 100 µM (inactive) |
| CN1C(=O)c2ccc3ccccc3c2C1=O | > 100 µM (inactive) | 77.4 µM (inactive) | > 100 | 28.1 µM (inactive) | 73.1 µM (inactive) | > 100 µM (inactive) | > 100 µM (inactive) | > 100 µM (inactive) | > 100 µM (inactive) | > 100 µM (inactive) | > 100 µM (inactive) | > 100 µM (inactive) | > 100 µM (inactive) | > 100 µM (inactive) | > 100 µM (inactive) | > 100 µM (inactive) | > 100 µM (inactive) | > 100 µM (inactive) |
| Cc1cccc2c1NC(=S)[C@@H]1CCCN1C2=O | > 100 µM (inactive) | > 100 µM (inactive) | > 100 |  | > 100 µM (inactive) | > 100 µM (inactive) | > 100 µM (inactive) | > 100 µM (inactive) | > 100 µM (inactive) | > 100 µM (inactive) | > 100 µM (inactive) | > 100 µM (inactive) | > 100 µM (inactive) | > 100 µM (inactive) | > 100 µM (inactive) | > 100 µM (inactive) | > 100 µM (inactive) | > 100 µM (inactive) |
| CN(C)CC[N+](C)(C)[BH2-]C(O)O | > 100 µM (inactive) | > 100 µM (inactive) | > 100 | > 100 µM (inactive) | > 100 µM (inactive) | > 100 µM (inactive) | > 100 µM (inactive) | > 100 µM (inactive) | > 100 µM (inactive) | > 100 µM (inactive) | > 100 µM (inactive) | > 100 µM (inactive) | > 100 µM (inactive) | > 100 µM (inactive) | > 100 µM (inactive) | > 100 µM (inactive) | > 100 µM (inactive) | > 100 µM (inactive) |
| C=C(C)[C@@H]1CC[C@]2(C(=O)O)CC[C@]3(C)[C@H](CC[C@@H]4[C@@]5(C)CC(=O)C(C)(C)[C@@H]5CC[C@]43C)[C@@H]12 | 5.56 µM (inactive) | 4.01 µM (inactive) | 8.67 | 0.649 µM (active) | 9.48 µM (inactive) | 9.86 µM (inactive) | 8.65 µM (inactive) | 5.65 µM (inactive) | 8.02 µM (inactive) | 4.98 µM (inactive) | 4.95 µM (inactive) | 11.1 µM (inactive) | 6.38 µM (inactive) | 11 µM (inactive) | 4.52 µM (inactive) | 5.7 µM (inactive) | 5.13 µM (inactive) | 7.29 µM (inactive) |
| COc1cc(OC)c2c(=O)c(O)c(-c3ccc(OC)c(OC)c3)oc2c1 | 5.85 µM (inactive) | 4.94 µM (inactive) | 3.08 | 3.48 µM (inactive) | 17.3 µM (inactive) | 4.86 µM (inactive) | 9.4 µM (inactive) | 5.28 µM (inactive) | 22.6 µM (inactive) | 2.89 µM (inactive) | 3.94 µM (inactive) | 2.86 µM (inactive) | 3.56 µM (inactive) | 10.3 µM (inactive) |  | 5.96 µM (inactive) | 3.33 µM (inactive) | 8.85 µM (inactive) |
